Like-named read-outs stand apart in the source and are kept apart here.
Key:
[1] = test system: IL-2 stimulated pSTAT5 in Tall-1 T cells (JAK3); experiment: Cellular JAK3 potency assay: inhibition of IL-2 stimulated pSTAT5 in Tall-1 T cells; format: cell-based; details: IL-2 300 ng/ml, pSTAT5 AlphaLisa, Tall-1 human T cell line; read-out: Tall-1 (pIC50) (converted)
Method: Assay 2: Cellular JAK3 Potency Assay: Inhibition of IL-2 Stimulated pSTAT5 in Tall-1 T Cells
The potency of test compounds for inhibition of interleukin-2 (IL-2) stimulated STATS phosphorylation was measured in the Tall-1 human T cell line (DSMZ) using AlphaLisa. Because IL-2 signals through JAK3, this assay provides a measure of JAK3 cellular potency.
Phosphorylated STATS was measured via the AlphaLISA SureFire Ultra pSTAT5 (Tyr694/699) kit (PerkinElmer).
Human T cells from the Tall-1 cell line were cultured in a 37° C., 5% CO2 humidified incubator in RPMI (Life Technologies) supplemented with 15% Heat Inactivated Fetal Bovine Serum (FBS, Life Technologies), 2 mM Glutamax (Life Technologies), 25 mM HEPES (Life Technologies) and 1× Pen/Strep (Life Technologies). Compounds were serially diluted in DMSO and dispensed acoustically to empty wells. Assay media (phenol red-free DMEM (Life Technologies) supplemented with 10% FBS (ATCC)) was dispensed (4 μL/well) and plates shaken at 900 rpm for 10 mins. Cells were seeded at 45,000 cells/well in assay media (4 μL/well), and incubated at 37° C., 5% CO2 for 1 hour, followed by the addition of IL-2 (R&D Systems; final concentration 300 ng/ml) in pre-warmed assay media ([…]) for 30 minutes. After cytokine stimulation, cells were lysed with 6 ul of 3× AlphaLisa Lysis Buffer (PerkinElmer) containing 1× PhosStop and Complete tablets (Roche). The lysate was shaken at 900 rpm for 10 minutes at room temperature (RT). Phosphorylated STATS was measured via the pSTAT5 AlphaLisa kit (PerkinElmer). Freshly prepared acceptor bead mixture was dispensed onto lysate (5 μL) under green filtered <100 lux light. Plates were shaken at 900 rpm for 2 mins, briefly spun down, and incubated for 2 hrs at RT in the dark. Donor beads were dispensed (5 μL) under green filtered <100 lux light. Plates were shaken at 900 rpm for 2 minutes, briefly spun down, and incubated overnight at RT in the dark. Luminescence was measured with excitation at 689 nm and emission at 570 nm using an EnVision plate reader (PerkinElmer) under green filtered <100 lux light.
To determine the inhibitory potency of test compounds in response to IL-2, the average emission intensity of beads bound to pSTAT5 was measured in a human T cell line. IC50 values were determined from analysis of the inhibition curves of signal intensity versus compound concentration. Data are expressed as pIC50 (negative decadic logarithm IC50) values (mean±standard deviation).

JAK3 = JAK3 (Homo sapiens (Human), UniProt P52333); experiment: Biochemical JAK and Tyk2 kinase assays (LanthaScreen): JAK3; details: for Ki: read-out: JAK 3 (pKi) (converted); for JAK3 (pKi)-JAK1 (pKi): difference of pKi values, selectivity JAK3 over JAK1
Method: (§1) Assay 1: Biochemical JAK and Tyk2 Kinase Assays
(§2) A panel of four LanthaScreen JAK biochemical assays (JAK1, 2, 3 and Tyk2) were carried in a common kinase reaction buffer (50 mM HEPES, pH 7.5, 0.01% Brij-35, 10 mM MgCl2, and 1 mM EGTA). Recombinant GST-tagged JAK enzymes and a GFP-tagged STAT1 peptide substrate were obtained from Life Technologies.
(§3) Serially or discretely diluted compounds were pre-incubated with each of the four JAK enzymes and the substrate in white 384-well microplates (Corning) at ambient temperature for 1 h. ATP was subsequently added to initiate the kinase reactions in 10 μL total volume, with 1% DMSO. […] Kinase reactions were allowed to proceed for 1 hour at ambient temperature before a 10 μL preparation of EDTA (10 mM final concentration) and Tb-anti-pSTAT1 (pTyr701) antibody (Life Technologies, 2 nM final concentration) in TR-FRET dilution buffer (Life Technologies) was added. The plates were allowed to incubate at ambient temperature for 1 h before being read on the EnVision reader (Perkin Elmer). Emission ratio signals (520 nm/495 nm) were recorded and utilized to calculate the percent inhibition values based on DMSO and background controls.
(§4) For dose-response analysis, percent inhibition data were plotted vs. compound concentrations, and IC50 values were determined from a 4-parameter robust fit model with the Prism software (GraphPad Software). Results were expressed as pIC50 (negative logarithm of IC50) and subsequently converted to pKi (negative logarithm of dissociation constant, Ki) using the Cheng-Prusoff equation.

JAK1 = JAK1 (Homo sapiens (Human), UniProt P23458); experiment: Biochemical JAK and Tyk2 kinase assays (LanthaScreen): JAK1; details: 1 h pre-incubation, ATP at Km; pIC50 converted to pKi by Cheng-Prusoff
Method: as §1, §2, §3, §4

[2] = 1 h pre-incubation, ATP at Km, pIC50 converted to pKi by Cheng-Prusoff

JAK1, sequence (P23458 whole entry): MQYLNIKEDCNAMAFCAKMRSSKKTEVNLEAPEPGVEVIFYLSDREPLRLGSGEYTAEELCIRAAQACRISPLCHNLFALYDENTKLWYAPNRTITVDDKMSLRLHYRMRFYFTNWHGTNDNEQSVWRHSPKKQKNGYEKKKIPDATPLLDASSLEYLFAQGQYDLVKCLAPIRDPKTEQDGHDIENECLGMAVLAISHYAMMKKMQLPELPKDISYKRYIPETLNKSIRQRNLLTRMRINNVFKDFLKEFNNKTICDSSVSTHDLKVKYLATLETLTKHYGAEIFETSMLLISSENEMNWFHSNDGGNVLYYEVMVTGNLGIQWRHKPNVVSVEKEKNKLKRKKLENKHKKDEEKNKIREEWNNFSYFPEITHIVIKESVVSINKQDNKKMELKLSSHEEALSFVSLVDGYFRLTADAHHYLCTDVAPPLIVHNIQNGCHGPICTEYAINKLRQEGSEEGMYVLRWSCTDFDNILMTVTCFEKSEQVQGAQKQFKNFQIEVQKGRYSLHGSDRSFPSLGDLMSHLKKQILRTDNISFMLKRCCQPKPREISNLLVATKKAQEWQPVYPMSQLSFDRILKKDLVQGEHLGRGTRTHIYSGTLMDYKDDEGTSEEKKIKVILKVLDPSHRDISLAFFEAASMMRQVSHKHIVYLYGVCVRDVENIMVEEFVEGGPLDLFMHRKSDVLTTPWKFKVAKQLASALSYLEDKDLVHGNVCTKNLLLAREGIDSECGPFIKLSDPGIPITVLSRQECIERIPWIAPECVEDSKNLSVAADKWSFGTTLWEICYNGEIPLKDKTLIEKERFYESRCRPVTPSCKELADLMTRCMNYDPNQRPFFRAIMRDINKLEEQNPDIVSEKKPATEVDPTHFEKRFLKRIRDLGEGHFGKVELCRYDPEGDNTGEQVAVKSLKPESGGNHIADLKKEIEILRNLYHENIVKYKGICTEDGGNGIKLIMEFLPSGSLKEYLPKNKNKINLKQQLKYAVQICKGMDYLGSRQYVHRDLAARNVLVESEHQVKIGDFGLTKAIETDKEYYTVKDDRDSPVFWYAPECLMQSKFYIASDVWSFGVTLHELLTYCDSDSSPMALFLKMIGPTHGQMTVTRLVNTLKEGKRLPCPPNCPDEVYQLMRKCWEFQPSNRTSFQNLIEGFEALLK
JAK3, sequence (P52333 whole entry): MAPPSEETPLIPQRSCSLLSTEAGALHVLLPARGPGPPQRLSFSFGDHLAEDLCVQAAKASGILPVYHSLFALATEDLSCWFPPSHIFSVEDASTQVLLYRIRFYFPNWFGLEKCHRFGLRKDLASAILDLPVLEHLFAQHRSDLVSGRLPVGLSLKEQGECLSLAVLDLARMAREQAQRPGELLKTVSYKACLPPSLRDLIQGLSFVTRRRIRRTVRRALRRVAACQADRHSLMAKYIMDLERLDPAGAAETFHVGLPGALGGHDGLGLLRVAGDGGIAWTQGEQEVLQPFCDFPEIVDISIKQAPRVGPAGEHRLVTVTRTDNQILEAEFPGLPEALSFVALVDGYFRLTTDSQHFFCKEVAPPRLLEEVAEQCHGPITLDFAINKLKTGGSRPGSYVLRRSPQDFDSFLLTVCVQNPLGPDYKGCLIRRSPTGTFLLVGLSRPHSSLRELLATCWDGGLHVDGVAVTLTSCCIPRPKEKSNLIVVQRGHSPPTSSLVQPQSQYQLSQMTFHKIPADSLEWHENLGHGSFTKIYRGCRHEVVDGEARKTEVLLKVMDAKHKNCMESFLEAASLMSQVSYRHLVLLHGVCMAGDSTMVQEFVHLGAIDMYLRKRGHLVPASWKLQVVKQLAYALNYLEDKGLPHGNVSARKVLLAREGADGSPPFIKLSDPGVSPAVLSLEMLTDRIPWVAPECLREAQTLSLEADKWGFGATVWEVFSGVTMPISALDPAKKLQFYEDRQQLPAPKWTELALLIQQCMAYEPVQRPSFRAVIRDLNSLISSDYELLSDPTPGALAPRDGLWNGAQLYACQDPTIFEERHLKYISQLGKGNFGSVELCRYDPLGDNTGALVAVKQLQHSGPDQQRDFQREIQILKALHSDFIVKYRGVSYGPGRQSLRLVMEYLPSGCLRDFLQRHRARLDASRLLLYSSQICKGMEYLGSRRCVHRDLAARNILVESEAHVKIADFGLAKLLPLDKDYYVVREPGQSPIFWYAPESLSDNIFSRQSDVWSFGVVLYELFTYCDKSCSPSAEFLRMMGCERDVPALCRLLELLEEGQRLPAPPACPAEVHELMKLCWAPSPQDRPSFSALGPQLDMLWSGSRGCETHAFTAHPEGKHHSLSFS

| SMILES | IC50 [1] | Ki (JAK3; [2]) | JAK3 (pKi)-JAK1 (pKi) (JAK3) | JAK 1 (pKi) (JAK1) | JAK 3 (pKi) (JAK3; [2]) | Ki (JAK1) | Ki (JAK3) |
| --- | --- | --- | --- | --- | --- | --- | --- |
| CCc1cc(O)ccc1-c1cc(OCC2CN(C(=O)/C=C/CN(C)C)C2)c2cncn2c1 [Example 25] | 200 to 1000 nM | 0.1 to 1 nM | A (A represents a value of 3 or above) | E (E represents a pKi value of 7 or below (Ki of 100 nM or above)) | – | – | – |
| C=CC(=O)N1CC(COc2cc(-c3ccc(O)cc3OC)cn3cncc23)C1 [Example 45] | 200 to 1000 nM | 0.1 to 1 nM | A (A represents a value of 3 or above) | E (E represents a pKi value of 7 or below (Ki of 100 nM or above)) | – | – | – |
| C=CC(=O)N1[C@@H]2CC[C@H]1C[C@H](Oc1cc(-c3ccc(O)cc3)cn3cncc13)C2 [Example 10, 1-((1R,3S,5S)-3-((6-(4-hydroxyphenyl)imidazo[1,5-a]pyridin-8-yl)oxy)-8-azabicyclo[3.2.1]octan-8-yl)prop-2-en-1-one] | 31.6 to 200 nM | – | – | – | – | – | – |
| C=CC(=O)N1[C@@H]2CC[C@H]1C[C@H](Oc1cc(-c3cc(F)c(O)cc3CC)cn3cncc13)C2 [Example 48] | ≤ 31.6 nM | – | A (A represents a value of 3 or above) | – | A (A represents a pKi value≥10 (Ki≤0.1 nM)) | 10 to 100 nM | – |
| C=CC(=O)N1CCC[C@H](Nc2cc(-c3ccc(O)cc3)cn3cncc23)C1 [Example 51] | – | 1 to 10 nM | B (B represents a value of 2.3 to 3) | E (E represents a pKi value of 7 or below (Ki of 100 nM or above)) | – | – | – |
| C=CC(=O)N1CC(CNc2cc(-c3ccc(O)cc3)cn3cncc23)C1 [Example 52] | – | 1 to 10 nM | B (B represents a value of 2.3 to 3) | E (E represents a pKi value of 7 or below (Ki of 100 nM or above)) | – | – | – |
| CN(C)C/C=C/C(=O)N1CC(COc2cc(-c3ccc(O)c(F)c3)cn3cncc23)C1 [Example 22] | 200 to 1000 nM | 0.1 to 1 nM | A (A represents a value of 3 or above) | E (E represents a pKi value of 7 or below (Ki of 100 nM or above)) | – | – | – |
| C=CC(=O)N1CC(COc2cc(-c3cc(C)c(O)cc3C)cn3cncc23)C1 [Example 43] | 31.6 to 200 nM | 0.1 to 1 nM | A (A represents a value of 3 or above) | E (E represents a pKi value of 7 or below (Ki of 100 nM or above)) | – | – | – |
| C=CC(=O)N1CC(COc2cc(-c3cc(F)c(O)c(F)c3)cn3cncc23)C1 [Example 32] | 200 to 1000 nM | 0.1 to 1 nM | A (A represents a value of 3 or above) | E (E represents a pKi value of 7 or below (Ki of 100 nM or above)) | – | – | – |
| CCc1cc(O)c(F)cc1-c1cc(O[C@H]2CCCN(C(=O)/C=C/CN(C)C)C2)c2cncn2c1 [Example 18] | – | 0.1 to 1 nM | B (B represents a value of 2.3 to 3) | E (E represents a pKi value of 7 or below (Ki of 100 nM or above)) | – | – | – |
| C=CC(=O)N1CCC(Oc2cc(-c3cc(F)c(O)cc3CC)cn3cncc23)C(F)(F)C1 (stereo not drawn) [Example 49] | ≤ 31.6 nM | – | C (C represents a value of 1.8 to 2.3) | – | – | 10 to 100 nM | 0.1 nM |
| C=CC(=O)N1CC2(CCC2Oc2cc(-c3cc(F)c(O)cc3CC)cn3cncc23)C1 (stereo not drawn) [Example 46] | 31.6 to 200 nM | 0.1 to 1 nM | B (B represents a value of 2.3 to 3) | E (E represents a pKi value of 7 or below (Ki of 100 nM or above)) | – | – | – |
| C=CC(=O)N1CC(CSc2cc(-c3ccc(O)cc3)cn3cncc23)C1 [Example 29] | 200 to 1000 nM | 0.1 to 1 nM | A (A represents a value of 3 or above) | E (E represents a pKi value of 7 or below (Ki of 100 nM or above)) | – | – | – |
| C=CC(=O)N1[C@@H]2CC[C@H]1C[C@@H](Oc1cc(-c3ccc(O)cc3)cn3cncc13)C2 [Example 36] | 31.6 to 200 nM | – | A (A represents a value of 3 or above) | E (E represents a pKi value of 7 or below (Ki of 100 nM or above)) | A (A represents a pKi value≥10 (Ki≤0.1 nM)) | – | – |
| C=CC(=O)N1CC(COc2cc(-c3ccc(O)cc3C(F)(F)F)cn3cncc23)C1 [Example 42] | 200 to 1000 nM | 0.1 to 1 nM | A (A represents a value of 3 or above) | E (E represents a pKi value of 7 or below (Ki of 100 nM or above)) | – | – | – |
| C=CC(=O)N1CCC(Oc2cc(-c3cc(F)c(O)cc3CC)cn3cncc23)CC1 [Example 47] | ≤ 31.6 nM | – | B (B represents a value of 2.3 to 3) | – | A (A represents a pKi value≥10 (Ki≤0.1 nM)) | 10 to 100 nM | – |
| CN(C)C/C=C/C(=O)N1CC(COc2cc(-c3ccc(O)cc3)cn3cncc23)C1 [Example 19] | 200 to 1000 nM | 0.1 to 1 nM | A (A represents a value of 3 or above) | E (E represents a pKi value of 7 or below (Ki of 100 nM or above)) | – | – | – |
| C=CC(=O)N1CC(COc2cc(-c3ccc(O)cc3)cn3cnnc23)C1 [Example 5, 1-(3-(((6-(4-hydroxyphenyl)-[1,2,4]triazolo[4,3-a]pyridin-8-yl)oxy)methyl)azetidin-1-yl)prop-2-en-1-one] | 200 to 1000 nM | – | A (A represents a value of 3 or above) | E (E represents a pKi value of 7 or below (Ki of 100 nM or above)) | A (A represents a pKi value≥10 (Ki≤0.1 nM)) | – | – |
| C=CC(=O)N1[C@H](C)C[C@H](Oc2cc(-c3ccc(O)cc3)cn3cncc23)C[C@@H]1C [Example 40] | 200 to 1000 nM | 1 to 10 nM | B (B represents a value of 2.3 to 3) | E (E represents a pKi value of 7 or below (Ki of 100 nM or above)) | – | – | – |
| C=CC(=O)N1[C@@H]2CC[C@H]1C[C@H](Nc1cc(-c3ccc(O)cc3)cn3cncc13)C2 [Example 50] | – | 1 to 10 nM | B (B represents a value of 2.3 to 3) | E (E represents a pKi value of 7 or below (Ki of 100 nM or above)) | – | – | – |
| C=CC(=O)N1CC(COc2cc(-c3cc(C)c(O)c(C)c3)cn3cncc23)C1 [Example 35] | 200 to 1000 nM | 0.1 to 1 nM | A (A represents a value of 3 or above) | E (E represents a pKi value of 7 or below (Ki of 100 nM or above)) | – | – | – |
| C=CC(=O)N1CC[C@H](Oc2cc(-c3ccc(O)cc3)cn3cncc23)C[C@@H]1C [Example 38] | 31.6 to 200 nM | 0.1 to 1 nM | A (A represents a value of 3 or above) | E (E represents a pKi value of 7 or below (Ki of 100 nM or above)) | – | – | – |
| C=CC(=O)N1CCC(N(C)c2cc(-c3ccc(O)cc3)cn3cncc23)CC1 [Example 17] | – | – | B (B represents a value of 2.3 to 3) | E (E represents a pKi value of 7 or below (Ki of 100 nM or above)) | C (C represents a pKi value between 8 and 9 (Ki between 10 nM and 1 nM)) | – | – |

Source: patent US10851102B2, “Imidazole and triazole containing bicyclic compounds as JAK inhibitors” (THERAVANCE BIOPHARMA R&D IP, LLC, priority 2019, dated 2020)
